Assay results from publication PMC12264943, “Identification of New Human P2X7 Antagonists Using Ligand- and Structure-Based Virtual Screening” (Journal of Chemical Information and Modeling, 2025).
“Also recorded” adds a separate entry of the source. Each block holds one compound with its values, some of them ahead of it.

What was measured:
Assay type in all cases: cell-based
hP2X7 [1] = target: T1, hP2X7 (Homo sapiens, UniProt Q99572); assay: YO-PRO 1 dye uptake assay, HEK-293 cells stably transfected with hP2X7; details: for hP2X7 inhibition in YO-PRO 1 dye uptake, SAR / reduction of hP2X7 activity: analogues at 10 μM; for hP2X7 inhibition in YO-PRO 1 dye uptake, SAR: 1 mM ATP; for reduction of hP2X7 activity: YO-PRO 1, 1 mM ATP, 0.1% DMSO; for IC50: Table 1, table names no assay, values of 2 and 9 are from YO-PRO 1 dye uptake in hP2X7 HEK-293 cells, read-out: IC50
T1 construct: expressed in transfected cells; host or cells: HEK-293, stably transfected (gift of E. Adinolfi's group, Ferrara University)
T1 sequence (Q99572 1-595): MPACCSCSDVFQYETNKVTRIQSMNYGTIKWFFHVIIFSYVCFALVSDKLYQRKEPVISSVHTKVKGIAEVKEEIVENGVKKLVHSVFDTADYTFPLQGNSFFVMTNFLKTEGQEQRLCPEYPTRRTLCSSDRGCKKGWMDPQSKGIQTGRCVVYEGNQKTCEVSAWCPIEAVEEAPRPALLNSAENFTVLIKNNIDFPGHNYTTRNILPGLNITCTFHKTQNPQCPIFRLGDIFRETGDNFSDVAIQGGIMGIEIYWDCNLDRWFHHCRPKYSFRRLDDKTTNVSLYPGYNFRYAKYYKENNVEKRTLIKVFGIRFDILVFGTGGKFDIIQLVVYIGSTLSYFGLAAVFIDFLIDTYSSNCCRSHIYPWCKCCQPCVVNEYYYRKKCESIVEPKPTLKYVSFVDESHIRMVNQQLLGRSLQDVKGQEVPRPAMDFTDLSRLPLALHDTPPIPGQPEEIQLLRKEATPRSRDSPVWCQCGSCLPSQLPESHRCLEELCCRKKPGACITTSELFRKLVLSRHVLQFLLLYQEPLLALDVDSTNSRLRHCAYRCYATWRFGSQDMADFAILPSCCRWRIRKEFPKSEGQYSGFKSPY
Protocol: (§1) Astrocytoma 1321 N1 (established by Dr. Gaia Pasqualetto) and HEK-293 (kindly gifted by E. Adinolfi’s group, Ferrara University) both stably transfected with hP2X7, were used to assess the activity of the small molecules selected from the VS. Cells were maintained in DMEM:F12 (PanBiotech) supplemented with 10% FBS, 1% pen-strep, and 150 μg/mL G418 (PanBiotech).
(§2) Astrocytoma 1321 N1 cells (2–2.5 × 10^4 cells/well) and HEK-293 cells (4–5 × 10^4 cells/well) expressing hP2X7 were seeded in poly-L-lysine-coated 96-well plates (Sarstedt) 24 h before the experiment. YO-PRO 1 dye was prepared at 5 μM in extracellular solution with low divalent cations (ECS-LD) buffer (147 mM NaCl, 10 mM HEPES, 13 mM glucose, 0.2 mM CaCl2, 2 mM KCl, pH 7.4) and added to cells after washing them with Dulbecco’s phosphate- buffered saline (DPBS) (PanBiotech) and incubated for 20 min at 37 °C. ATP-induced dye uptake, mediated by hP2X7 activation, was monitored using a Clariostar plate reader (excitation: 485 nm; emission: 538 nm) for 30 cycles (75–150 s/cycle), after recording the baseline for five cycles. hP2X7 activation was quantified at cycle 10 by calculating the fluorescence intensity (FI) ratio (Δ(Fcycle 10–F cycle 1)/cycle time).
Compounds 2 and 9, identified as hits, were further evaluated for concentration-dependent inhibition (IC50) of hP2X7 activation in the YO-PRO 1 dye uptake assay using HEK-293 cells stably transfected with hP2X7 (unfortunately, at this point in the study, the stably transfected 1321N1 cells lost P2X7 expression, and we were unable to recover them from frozen aliquots), for which the ATP EC50 was determined to be approximately 1 mM (Supporting material Figure 4C). Seven concentrations (100 to 0.03 μM) were tested, but due to precipitation at 100 μM, the DMSO concentration was increased to 1%.
3 Inhibitory concentration response evaluation of compounds 2 and 9 and their groups highlighted for SAR. […] Compound activity was evaluated along a time of 20 min (75 s per cycle) after ATP addition (700 μM). The fluorescence intensity (FI) values of the first 10 cycles were considered for assessing their ability to inhibit hP2X7. The curves represent three biological replicates (n = 4 per replicate). Data were normalized by setting as 100% the FI recorded by hP2X7 HEK-293 cells incubated in 1% DMSO and stimulated by ATP, and as 0% the FI recorded by the same cells but treated with ECS-LD (assay buffer). (C) Highlighted areas of compound 2 considered for SAR study. R1 refers to the ethyl-benzyl group of the molecules, and R2 and R3 refer to the benzo-(1,3)-dioxol groups. (D) Highlighted areas of compound 9 considered for SAR study. We have defined the area highlighted in yellow and numbered as 1 as the “front” region of the molecule and the one colored in pink and named as 2 as the “back” region of the molecule. L highlights the urea and amide linkers of compounds 2 and 9, respectively.
(§3) 4 Evaluation of compound 2 and 9 analogue activity using YO-PRO 1 and MPR assays. The activity of compound 2 (A and B) and 9 (C and D) analogues was evaluated in YO-PRO 1 (A and C) and MPR (B and D) assays. The compounds were tested at 10 μM and preincubated for either 20 (YO-PRO 1) or 30 min (MPR). The baseline was recorded for 5 cycles before ATP treatment (1 mM). Fluorescence was recorded for 25 (YO-PRO 1) or 5 min (MPR). The data were normalized by setting as 100% for the fluorescence measured from hP2X7 HEK-293 cells incubated with vehicle (0.1% DMSO) and treated with 1 mM ATP and 0% for the fluorescence recorded by the cells not treated with ATP. The data shown correspond to three independent biological replicates (3 technical replicates per experiment; error bars represent the SEM from the mean values of each biological replicate (n = 3)). The statistical analysis was performed with one-way Anova using Dunnett’s function (P**** < 0.0001; P*** < 0.0003; P** < 0.002; P* < 0.02).

hP2X7 [2] = target: T1, hP2X7; assay: Membrane Potential Red (MPR) dye assay, HEK-293 cells stably transfected with hP2X7; details: 10 μM, 1 mM ATP, hP2X7 HEK-293
Protocol: as §1
(§4) Cells were plated as described for the YO-PRO 1 dye uptake assay. MPR dye (Molecular Devices) was prepared following the manufacturer’s protocol and diluted 1:10 in ECS-LD buffer. After washing with DPBS, cells were incubated with the dye for 30 min at 37 °C. Fluorescence changes (excitation: 525 nm; emission: 560 nm) were recorded using a Clariostar plate reader during ATP-induced membrane depolarization. Baseline fluorescence was recorded for 5 cycles, and ATP was added via an automated injector (10 μL). Membrane depolarization was quantified as the ratio of the maximal fluorescence change over baseline intensity (Δ(F max–F0)/F0)).
as §3

hP2X7 [3] = target: T1, hP2X7; assay: YO-PRO 1 dye uptake assay, 1321 N1 cells stably transfected with hP2X7; details: compound 30 μM, 700 μM ATP; for reduction of P2X7 activation: 0.3% DMSO
Protocol: as §1, §2
The P2X7 receptor, besides being a ligand-gated ion channel, forms large membrane pores following prolonged exposure to high concentrations of ATP, leading to apoptosis (Mackenzie et al. 2005). The YO-PRO 1 dye uptake assay, which measures dye influx through these pores, was selected as the primary screen. The fluorescence of YO-PRO 1 increases when it binds to DNA, enabling real-time monitoring of P2X7 activation (calculated as the rate of increase in fluorescence as YO-PRO 1 binds nuclear DNA).
The screening compounds were tested at 30 μM (0.3% DMSO) in 5 μM YO-PRO 1 dye diluted in freshly prepared ECS-LD buffer. Cells pretreated with the screening compounds were challenged with 700 μM ATP, and the fluorescence intensities were recorded. The negative control consisted of cells treated with 0.3% DMSO, while the positive control was 0.1 μM JNJ47965567, a selective P2X7 antagonist. ,
(§5) 2 Initial screening assays to identify hit compounds. (A) The compounds were screened at 30 μM in the YO-PRO 1 dye uptake using 1321 N1 cells stably transfected with hP2X7. Compound activity was evaluated along a time of 20 min (75 s per cycle) after ATP addition (700 μM). The fluorescence intensity (FI) values of the first 10 cycles were considered for assessing their ability to inhibit hP2X7. Compound responses were normalized to the fluorescent signal recorded on 0.3% DMSO cells treated with 700 μM ATP of each plate. […] (B) Compounds screened at 10 μM using MPR using 1321 N1 cells stably transfected with hP2X7. The compound activity was evaluated for 5 min after ATP addition (15 s per cycle). The fluorescence intensity recorded in the first cycles (before reaching a plateau response) was considered for assessing the small molecule’s ability to inhibit hP2X7. Compound responses were normalized to the fluorescence signal recorded on 0.1% DMSO cells treated with 700 μM ATP of each plate. […] One-way ANOVA and Dunnet test were used for statistical analysis (****P < 0.0001), (*P < 0.02).

hP2X7 [4] = target: T1, hP2X7; assay: Membrane Potential Red (MPR) dye assay, 1321 N1 cells stably transfected with hP2X7; details: P2X7; compound 10 μM, 700 μM ATP
Protocol: as §1, §4
as §5, with “0.02). […]” for “0.02).”

hP2X7 [5] = target: T1, hP2X7; assay: as above; details: compound 10 μM, 700 μM ATP

Compound: CC(C)NC(=O)NC(Cc1ccc2c(c1)OCO2)Cc1ccc2c(c1)OCO2 [Compound 2a]
hP2X7 inhibition in YO-PRO 1 dye uptake, SAR (hP2X7 [1]): reduced antagonist effects

Compound: COc1ccc(CC(Cc2ccc3c(c2)OCO3)NC(=O)Nc2ccc(C)c(F)c2)cc1 (stereo not shown) [Compound 2b]
hP2X7 inhibition in YO-PRO 1 dye uptake, SAR (hP2X7 [1]): diminished hP2X7 inhibition

Compound: O=C(Nc1ccc(F)cc1F)NC(Cc1ccc2c(c1)OCO2)Cc1ccc2c(c1)OCO2 [Compound 2c]
reduction of hP2X7 activity (hP2X7 [1]): 80%

Compound: CNC(=O)NC(Cc1ccc(F)cc1)Cc1ccc2c(c1)OCO2 (stereo not shown) [Compound 2d]
hP2X7 inhibition in YO-PRO 1 dye uptake, SAR (hP2X7 [1]): reduced antagonist effects

Compound: CCOC(=O)c1ccccc1NC(=O)NC(Cc1ccc(OC)cc1)Cc1ccc2c(c1)OCO2 (stereo not shown) [Compound 2e]
hP2X7 inhibition in YO-PRO 1 dye uptake, SAR (hP2X7 [1]): diminished hP2X7 inhibition

Compound: O=C(NCCc1ccc2c(c1)OCO2)NCCN1CCN(c2ccccc2)CC1 [Compound 2f]
hP2X7 inhibition in YO-PRO 1 dye uptake, SAR (hP2X7 [1]): reduced activity compared to 2

Compound: CCOc1ccc(NC(=O)NC(Cc2ccc(F)cc2)Cc2ccc3c(c2)OCO3)cc1 (stereo not shown) [Compound 2h]
reduction of hP2X7 activity (hP2X7 [1]): 80%

Compound: COc1ccc(CCNC(=O)Nc2ccc3c(c2)OCO3)cc1OC [Compound 2j]
hP2X7 inhibition in YO-PRO 1 dye uptake, SAR (hP2X7 [1]): reduced activity compared to 2

Compound: COc1ccc(CC(Cc2ccc3c(c2)OCO3)NC(=O)c2ccc(NC(C)=O)cc2)cc1 (stereo not shown) [Compound 2k]
hP2X7 inhibition in YO-PRO 1 dye uptake, SAR (hP2X7 [1]): still reduced receptor activation | reduction of hP2X7 activity (hP2X7 [1]): 80% | activity in MPR assay (hP2X7 [2]): diminished activity relative to the other structural analogues

Compound: O=C(NCc1ccc(Oc2ccc(F)cc2)cc1)c1ccccc1CN1C(=O)CNC1=O [Compound 4]
activity in YO-PRO 1 dye uptake screen (hP2X7 [3]): no significant activity | inhibition at 10 µM (hP2X7 [4]): ~90% | activity in MPR screen, hP2X7-induced membrane depolarization (hP2X7 [5]): statistically inhibited

Compound: COc1cccc(NC(=O)CSc2ccccc2C(=O)NCc2cn3ccccc3n2)c1 [Compound 6]
activity in YO-PRO 1 dye uptake screen (hP2X7 [3]): antagonist activity | reduction of P2X7 activation (hP2X7 [3]): at least 50% | IC50 (hP2X7 [1]): 20.9 µM | activity in MPR screen, hP2X7-induced membrane depolarization (hP2X7 [5]): did not also block

Compound: Cc1nn(-c2ccccc2)c(C)c1NC(=O)NCc1ccccc1Cn1cccn1 [Compound 7]
activity in YO-PRO 1 dye uptake screen (hP2X7 [3]): antagonist activity | reduction of P2X7 activation (hP2X7 [3]): at least 50% | IC50 (hP2X7 [1]): 4.23 µM | activity in MPR screen, hP2X7-induced membrane depolarization (hP2X7 [5]): did not also block

Compound: O=C(NCc1ccccc1)NC1(C(=O)NCc2ccccc2Cn2ccnc2)CCCC1 [Compound 8]
activity in YO-PRO 1 dye uptake screen (hP2X7 [3]): antagonist activity | reduction of P2X7 activation (hP2X7 [3]): at least 50% | IC50 (hP2X7 [1]): 4.07 µM | activity in MPR screen, hP2X7-induced membrane depolarization (hP2X7 [5]): did not also block

Compound: O=C(CSc1ncccc1C(=O)N1CCN(c2ccccc2F)CC1)Nc1ccc2c(c1)OCO2 [Compound 9e]
hP2X7 inhibition in YO-PRO 1 dye uptake, SAR (hP2X7 [1]): activity comparable to that of 9; also recorded: enhanced target inhibition

Compound: CN(C)S(=O)(=O)c1cccc(COC(=O)c2cccnc2SCC(=O)Nc2ccc3c(c2)OCO3)c1 [Compound 9h]
hP2X7 inhibition in YO-PRO 1 dye uptake, SAR (hP2X7 [1]): activity comparable to that of 9; also recorded: enhanced target inhibition

Next, values leading:

hP2X7 inhibition in YO-PRO 1 dye uptake, SAR (hP2X7 [1]): reduced activity
Compound: CN(C)C(=O)Cn1cc(NC(=O)c2cnc(-c3ccc4c(c3)OCO4)s2)cn1 [Compound 9a]

hP2X7 inhibition in YO-PRO 1 dye uptake, SAR (hP2X7 [1]): compromised activity
Compound: O=C(COC(=O)c1cccnc1SCC(=O)Nc1ccc2c(c1)OCO2)NCc1ccco1 [Compound 9c]

hP2X7 inhibition in YO-PRO 1 dye uptake, SAR (hP2X7 [1]): activity comparable to that of 9
Compound: O=C(CSc1ncccc1C(=O)Nc1ccc(-n2cnnn2)cc1)Nc1ccc2c(c1)OCO2 [Compound 9d]
